Results taken from patent US7709514B2, “Therapeutic molecules and methods-1” (Cortical Pty Ltd, priority 2002, dated 2010).
Like-named read-outs stand apart in the source and are kept apart here.

Columns and labels:
[1] = tested on: IL-1 induced phosphorylation of ERK; experiment: IL-1 induced phosphorylation (activation) of ERK, Western blotting; type: cell-based, human; conditions: compound 5 50 μM alone; S112 cells, IL-1 0.1 ng/ml, 30 minutes
Protocol: S112 human dermal fibroblasts cultured in RPMI (serum-free) medium were stimulated with recombinant human IL-1 0.1 ng/ml, as described herein, for 30 minutes, with or without the addition of dexamethasone 10^−9M or benzimidazol-2-one-5-pentanoate (compound 5) (50 μM). The phosphorylation (activation) of ERK was assessed using Western blotting with a mAb specific for the phosphorylated (activated) form of ERK. In brief, cells were disrupted by repeated aspiration through a 21-gauge needle. After incubation on ice for 10 min and microcentrifugation at 3000 rpm for 15 min (4° C.), the supernatants were removed, the protein concentration was determined, and the lysates were stored at −80° C. Equal amounts of cellular proteins were fractionated on 10% SDS-polyacrylamide electrophoresis gels and transferred to polyvinylidene difluoride membranes. Immunoblotting was performed using antibodies directed against phospho-p44/42 (ERK) and total p44142 according to the manufacturer's instructions. The intensity of ERK activation is proportional to the size and optical density (darkness) of the resulting blots. Total ERK blots serve as a loading control, such that changes in phosphorylated ERK represent changes in phosphorylation and not in total ERK protein.

[2] = tested on: antigen-specific T cell activation; experiment: antigen-specific (mBSA) activation of splenic T lymphocytes, 3H-thymidine incorporation; type: cell-based, mice; conditions: for EC50: Mus musculus, T-cell, read-out: EC50, inhibition of T cell activation
Protocol: C57BL6/J male mice, aged 7-10 weeks old, were immunised with 200 μg of methylated bovine serum albumin (mBSA) dissolved in 20 μL of saline, emulsified in 200 μL of Freund's complete adjuvant (FCA) by subcutaneous injection. Seven (7) days later mice received a booster immunisation with 100 μg mBSA in 10 μL saline plus 100 μL FCA by subcutaneous injection. After a further seven (7) days mice were killed and spleens collected aseptically into Hanks buffered saline solution (HBSS). A single cell suspension was prepared in Petri dishes by flushing DMEM using a 26G needle and 2 mL syringe. The resulting cell suspension was centrifuged for 5-7 minutes and supernatant discarded. Erythrocytes were lysed using a solution containing 0.579% NH4Cl, 0.000037% EDTA, and 0.1% NaHCO3 in a 37° C. water bath. Tubes were then filled with DMEM and centrifuged for 5-7 minutes. The cell-containing pellet was then resuspended in DMEM containing 5% fetal calf serum TICS) and 0.05% 2-mercapto-ethanol at a concentration of 1×10^6 cells/mL and plated at 1×10^5 cells/well in 96-well plastic tissue culture plates. Test substances (compound or vehicle) were added and incubated for 1 hour in a 37° C., 5% CO2 incubator. The specific stimulating antigen, mBSA, was then added at 10-50 μg/ml and plates incubated for 30 hours in a 37° C., 5% CO2 incubator. Tritiated ^3H-thymidine was then added at a concentration of 0.5 μCi/well for a further 18 hours. Cells were harvested on a Packard cell harvester, and the harvested material added to 750 μL/tube scintillation fluid. Scintillation counts were read on a Wallac beta-emission counter.
The concentration at which T cell activation was suppressed by 50% compared to vehicle-only-treated cells (EC50) was calculated using Prism® software. […] Further compounds were also tested for their ability to inhibit antigen-specific T cell activation as a marker of the inhibition of the cytokine or biological activity of MIF using this assay. Table 5 lists the EC50 for each compound in this assay, performed with concentrations of mBSA of either 50 or 10 μg/ml.

[3] = tested on: cutaneous delayed-type hypersensitivity reactions; experiment: cutaneous delayed-type hypersensitivity (DTH) to mBSA; type: in vivo, mice; conditions: 15 mg/kg IP once per 24 hours; vs vehicle, p<0.05
Protocol: As noted above, cutaneous delayed-type hypersensitivity reactions (DTH) are an in vivo test of T cell activation. […] A compound which inhibits the cytokine of biological activity of MIF may be expected to inhibit the development of DTH reactions in vivo. DTH reactions were induced in mice developing antigen-induced arthritis (see below). C57BL6/J male mice, aged 7-10 weeks old, were immunized on day 0 with 200 μg methylated BSA (mBSA) emulsified in 200 μl of Freund's complete adjuvant (FCA) injected subcutaneously into the flank skin. Mice were treated with compound 5, administered by intraperitoneal injection, once per 24 hours at a dose of 15 mg/kg body weight. After seven days, mice received 100 μg mBSA and 100 μl FCA by intradermal injection at the base of the tail. After a further 14 days, arthritis was induced by intra-articular injection of 30 μg mBSA in 10 μl of sterile saline into the left knee, the right knee being injected with sterile saline alone. DTH reactions were induced as follows: these mice were challenged 24 h before the end of the experiment by intradermal injection of 50 μg mBSA in 20 μl saline into one hind footpad. […] Footpad swelling was quantified 24 h later using a micrometer. DTH was recorded as the difference in skin swelling between mBSA and saline-injected footpads, and expressed as change in footpad thickness (Δmm).

[4] = tested on: murine peritoneal macrophage nitric oxide production; experiment: inhibition of peritoneal macrophage nitric oxide release (Greiss assay); type: cell-based, mice; conditions: Mus musculus, LPS 10 ng/ml and interferon-γ 10 units/ml, 24 hours, read-out: % Nitrite concentration inhibition from control
Protocol: C57BL6/J male mice were injected intraperitoneally with 2 ml of thioglycollate. Five (5) days later peritoneal macrophages were collected by lavaging the peritoneum of anaesthetized mice with 3 ml of cold Hanks buffered saline solution. Cells from several mice were pooled, washed and re-suspended in DMEM supplemented with 5% FCS. Cells were plated in 96 well plastic tissue culture plates at 1×10^5 cells/well. Cells were treated with compound or vehicle for 1 hour in a 5% CO2 incubator at 37° C. Cells were then treated with LPS (10 ng/ml) and recombinant human interferon-γ (10 units/ml) and incubated for 24 hours. After 24 hours, 50 μl of supernatant from each well was carefully removed and transferred to ELISA plates. The concentration of nitrite in culture supernatants was measured by the Greiss assay (27). The results were defined as the percentage inhibition of nitrite concentration in compound-treated cell culture supernatants compared to that of vehicle-treated cells.

[5] = tested on: murine endotoxic shock model; experiment: murine endotoxic shock model (LPS), cytokines by ELISA; type: in vivo, mice

**Q.** With `CCCCCOC(=O)c1ccc2[nH]c(=O)[nH]c2c1` [Compound 5] as the compound, how does the “ERK activation by IL-1” value [1] read?
**A.** Its value is “not inhibited”.

**Q.** What about the “effect on antigen-specific T cell activation” value ([2]; FIG. 8, mBSA 50 μg/mL, increasing concentrations) of the same compound?
**A.** Its value is “dose-dependent and statistically significant inhibitory effect”.

**Q.** What about the EC50 ([2]; mBSA 10 μg/ml) of the same compound?
**A.** The EC50 was 15.3 µM.

**Q.** What about the EC50 ([2]; mBSA 50 μg/ml) of the same compound?
**A.** Its EC50 is 13.8 µM.

**Q.** And the “cutaneous DTH reactions (change in footpad thickness)” value [3]?
**A.** Its value is “statistically significant reduction”.

**Q.** And the inhibition at 25 µM ([4]; compound 25 μM)?
**A.** The inhibition at 25 µM was 11.1%.

**Q.** And the inhibition at 50 µM ([4]; compound 50 μM)?
**A.** The inhibition at 50 µM was 19.7%.

**Q.** What about the inhibition at 100 µM ([4]; compound 100 μM) of the same compound?
**A.** Its inhibition at 100 µM is 28.6%.

**Q.** And the “Serum IL-6 at 6 h, LPS + cpd” value ([5]; IP injection 1 mg/kg at −1 h, LPS alone 215100)?
**A.** The value was 101000.

**Q.** What about the “Serum IL-6 at 6 h, LPS + cpd” value ([5]; IP injection 5 mg/kg at −1 h, LPS alone 215100) of the same compound?
**A.** Its value is 108200.

**Q.** What about the “Serum IL-6 at 6 h, LPS + cpd” value ([5]; IP injection 15 mg/kg at −24, −12, −1 h, LPS alone 261900) of the same compound?
**A.** The value was 162800.
